Data on 2 compounds can be found in patent publication US9593149B2, “Amylin and calcitonin receptor agonist” (Novo Nordisk A/S, priority 2014, dated 2017).

As usually defined, the solubility is the dissolved amount per volume that the medium holds. A lower solubility goes with little dissolved substance.

Converted amounts (≈) assume the structure as drawn. Numbered stars: 1 amine (or outer) side, 2 acyl side, 3 side chain; on linkers, the order of the positions; unused ones are H or OH. Peptide text beside a SMILES is read from it. * marks the point of attachment. C20 diacid = O=C(O)CCCCCCCCCCCCCCCCCCC(=O)*; C18 diacid = O=C(O)CCCCCCCCCCCCCCCCC(=O)*; γGlu = O=C(O)[C@H](CCC(=O)[*:2])N[*:1]

The data set is described as follows: Assay (IV) determination of solubility. The data set is classed as physicochemical. The protocol:
Assay (IV)—Determination of Solubility
The mimylin peptide was dissolved in water at ˜500 nmol/ml and mixed 1:1 with a series of buffers (100 mM glycylglycine pH 3.0, 100 mM glycylglycine pH 4.0, 100 mM glycylglycine pH 5.0, 100 mM bistrispropane pH 6.0, 100 mM bistrispropane pH 6.5, 100 mM bistrispropane pH 7.0, 100 mM bistrispropane pH 7.5, 100 mM bistrispropane pH 8.0).

`CC[C@H](C)[C@H](NC(=O)[C@H](C)NC(=O)[C@@H](NC(=O)[C@H](CO)NC(=O)[C@@H](NC(=O)[C@H](CCC(=O)O)NC(=O)[C@H](CO)NC(=O)[C@H](C)NC(=O)[C@H](CCC(=O)O)NC(=O)CCCCCCCCCCCCCCCCC(=O)O)[C@@H](C)CC)[C@@H](C)O)C(=O)N[C@H](C(=O)NCC(=O)N[C@@H](CCCNC(=N)N)C(=O)N[C@@H](CC(C)C)C(=O)N[C@@H](CO)C(=O)N[C@@H](C)C(=O)N[C@@H](CCC(=O)O)C(=O)N[C@@H](CC(C)C)C(=O)N[C@@H](Cc1cnc[nH]1)C(=O)N[C@@H](CCC(=O)O)C(=O)N[C@@H](CC(C)C)C(=O)N[C@@H](C)C(=O)N[C@H](C(=O)N[C@@H](CC(C)C)C(=O)N1CCC[C@H]1C(=O)N[C@@H](CCCNC(=N)N)C(=O)N[C@H](C(=O)N[C@@H](CCC(=O)O)C(=O)N[C@H](C(=O)NCC(=O)N1CCC[C@H]1C(=O)N[C@@H](CCC(=O)O)C(=O)N[C@@H](CO)C(=O)N1CCC[C@H]1C(N)=O)[C@@H](C)O)[C@@H](C)O)[C@@H](C)O)[C@@H](C)CC` [compound 37, [N-terminal(C18 diacid), 5I, 9I, 10I]mimylin] ({C18 diacid}-EASEISTAIIGRLSAELHELATLPRTETGPESP-NH2): the Solubility entry (pH 3.0) was “≧200 μM”; the Solubility entry (pH 5.0) was “≧200 μM”; the Solubility result (pH 6.0) is reported as “≧200 μM”; the Solubility result (pH 6.5) was “≧200 μM”; the Solubility entry (pH 7.0) was “≧200 μM”; the Solubility entry (pH 7.5) is listed as “≧200 μM”. In addition, under “pH 8.0”, the Solubility result was “≧200 μM”. Besides, the solubility at 18 h (pH 4.0) was 18 µM (≈ 67.9 µg/mL).

Regarding `CC(C)C[C@H](NC(=O)[C@H](C)NC(=O)[C@H](C)NC(=O)[C@@H](NC(=O)[C@H](CO)NC(=O)[C@H](CC(C)C)NC(=O)[C@H](CCC(=O)O)NC(=O)[C@H](CO)NC(=O)[C@H](C)NC(=O)CC[C@H](NC(=O)CCCCCCCCCCCCCCCCCCC(=O)O)C(=O)O)[C@@H](C)O)C(=O)NCC(=O)N[C@@H](Cc1cnc[nH]1)C(=O)N[C@@H](CC(C)C)C(=O)N[C@@H](CO)C(=O)N[C@@H](C)C(=O)N[C@@H](CCC(=O)O)C(=O)N[C@@H](CC(C)C)C(=O)N[C@@H](Cc1cnc[nH]1)C(=O)N[C@@H](CCC(=O)O)C(=O)N[C@@H](CC(C)C)C(=O)N[C@@H](C)C(=O)N[C@H](C(=O)N[C@@H](CC(C)C)C(=O)N1CCC[C@H]1C(=O)N[C@@H](Cc1cnc[nH]1)C(=O)N[C@H](C(=O)N[C@@H](CCC(=O)O)C(=O)N[C@H](C(=O)NCC(=O)N[C@@H](CO)C(=O)NCC(=O)N[C@@H](CO)C(=O)N1CCC[C@H]1C(N)=O)[C@@H](C)O)[C@@H](C)O)[C@@H](C)O` [compound 84, [N-terminal(C20 diacid-gGlu), des1, 12H, 25H, 30S, 31G]mimylin] ({C20 diacid-γGlu}-ASELSTAALGHLSAELHELATLPHTETGSGSP-NH2), the Solubility result is, setting by setting: (pH 3.0) “≧200 μM”; (pH 4.0) “≧200 μM”; (pH 5.0) “≧200 μM”; (pH 6.0) “≧200 μM”; (pH 6.5) “≧200 μM”; (pH 7.0) “≧200 μM”. The Solubility result is listed as “≧200 μM” (pH 7.5) and “≧200 μM” (pH 8.0).
